Experimental data published in PMC5218480 (PLoS ONE, 2017).

System: MV-4-11 cells
Experiment: Gene expression microarray analysis (Affymetrix PrimeView) and GSEA
Assay type: cell-based, human
Parameters: RFU PODN (11730768_x_at) / Fold change /veh PODN (11730768_x_at) / RFU LINC00158 (11744669_a_at) / Fold change /veh LINC00158 (11744669_a_at) / RFU DUSP10 (11751237_a_at) / Fold change /veh DUSP10 (11751237_a_at) / RFU ID3 (11757404_x_at) / Fold change /veh ID3 (11757404_x_at) / RFU PLEKHG5 (11737974_s_at) / Fold change /veh PLEKHG5 (11737974_s_at) / RFU LRRC4B (11730491_at) / Fold change /veh LRRC4B (11730491_at) / RFU GIMAP4 (11747438_a_at) / Fold change /veh GIMAP4 (11747438_a_at) / RFU KRT8 (11758183_x_at) / Fold change /veh KRT8 (11758183_x_at) / RFU CNN1 (11734310_a_at) / Fold change /veh CNN1 (11734310_a_at) / RFU VPS37D (11726825_at) / Fold change /veh VPS37D (11726825_at) / RFU C10orf10 (11716522_x_at) / Fold change /veh C10orf10 (11716522_x_at) / RFU KIR2DL2 /// KIR2DL4 /// KIR2DL5A /// KIR2DL5B /// KIR2DS1 /// KIR2DS2 /// KIR2DS3 /// KIR2DS4 /// KIR3DL3 /// KIR3DL3 /// KIR3DS1 (11738374_at) / Fold change /veh KIR2DL2 /// KIR2DL4 /// KIR2DL5A /// KIR2DL5B /// KIR2DS1 /// KIR2DS2 /// KIR2DS3 /// KIR2DS4 /// KIR3DL3 /// KIR3DL3 /// KIR3DS1 (11738374_at) / RFU C1QL1 (11718748_at) / Fold change /veh C1QL1 (11718748_at) / RFU TMPRSS4 (11747572_a_at) / Fold change /veh TMPRSS4 (11747572_a_at) / RFU HAMP (11756126_x_at) / Fold change /veh HAMP (11756126_x_at) / RFU RNFT2 (11725882_a_at) / Fold change /veh RNFT2 (11725882_a_at) / RFU NR4A2 (11747474_a_at) / Fold change /veh NR4A2 (11747474_a_at) / RFU ABCC12 (11746883_a_at) / Fold change /veh ABCC12 (11746883_a_at) / RFU TMEM136 (11760407_x_at) / Fold change /veh TMEM136 (11760407_x_at) / RFU CLDN22 /// WWC2 (11732394_at) / Fold change /veh CLDN22 /// WWC2 (11732394_at) / RFU HLA-DPB1 (11760878_x_at) / Fold change /veh HLA-DPB1 (11760878_x_at) / RFU SPINT1 (11716480_a_at) / Fold change /veh SPINT1 (11716480_a_at) / RFU GAP43 (11754022_s_at) / Fold change /veh GAP43 (11754022_s_at) / RFU A4GNT (11735810_at) / Fold change /veh A4GNT (11735810_at) / RFU PRB3 (11715151_x_at) / Fold change /veh PRB3 (11715151_x_at) / RFU TUBB4B (11761932_at) / Fold change /veh TUBB4B (11761932_at) / RFU CAPN14 (11732068_a_at) / Fold change /veh CAPN14 (11732068_a_at) / RFU TMCC2 (11721928_a_at) / Fold change /veh TMCC2 (11721928_a_at) / RFU IRGQ (11745062_a_at) / Fold change /veh IRGQ (11745062_a_at) / RFU FAM174B (11720279_a_at) / Fold change /veh FAM174B (11720279_a_at) / RFU TMPRSS4 (11748680_a_at) / Fold change /veh TMPRSS4 (11748680_a_at) / RFU FAM212B (11763350_a_at) / Fold change /veh FAM212B (11763350_a_at) / RFU PLEKHG5 (11743358_a_at) / Fold change /veh PLEKHG5 (11743358_a_at) / RFU ZSCAN30 (11745921_a_at) / Fold change /veh ZSCAN30 (11745921_a_at) / RFU CMKLR1 (11741424_a_at) / Fold change /veh CMKLR1 (11741424_a_at) / RFU LOC101060620 /// MAPK8IP1 (11723275_at) / Fold change /veh LOC101060620 /// MAPK8IP1 (11723275_at) / RFU SPTSSB (11747773_x_at) / Fold change /veh SPTSSB (11747773_x_at) / RFU PRSS12 (11739890_at) / Fold change /veh PRSS12 (11739890_at) / RFU BIN1 (11741810_x_at) / Fold change /veh BIN1 (11741810_x_at) / RFU WNT11 (11732464_a_at) / Fold change /veh WNT11 (11732464_a_at) / RFU C10orf10 (11716521_a_at) / Fold change /veh C10orf10 (11716521_a_at) / RFU C5orf56 (11738089_at) / Fold change /veh C5orf56 (11738089_at) / RFU CYB561 (11721691_x_at) / Fold change /veh CYB561 (11721691_x_at) / RFU ANKRD19P (11752326_a_at) / Fold change /veh ANKRD19P (11752326_a_at) / RFU OR2T12 /// OR2T33 /// OR2T8 (11738714_s_at) / Fold change /veh OR2T12 /// OR2T33 /// OR2T8 (11738714_s_at) / RFU VCAN (11748164_a_at) / Fold change /veh VCAN (11748164_a_at) / RFU JSRP1 (11732532_at) / Fold change /veh JSRP1 (11732532_at) / RFU KRTAP10-11 (11738290_x_at) / Fold change /veh KRTAP10-11 (11738290_x_at) / RFU MYO3A (11730013_a_at) / Fold change /veh MYO3A (11730013_a_at) / RFU EBF3 (11725865_a_at) / Fold change /veh EBF3 (11725865_a_at) / RFU CAMK2N1 (11719241_x_at) / Fold change /veh CAMK2N1 (11719241_x_at) / RFU C5orf56 (11738088_a_at) / Fold change /veh C5orf56 (11738088_a_at) / RFU OLFML3 (11715873_a_at) / Fold change /veh OLFML3 (11715873_a_at) / RFU LOC100653217 /// NTM (11731650_a_at) / Fold change /veh LOC100653217 /// NTM (11731650_a_at) / RFU MAPK11 (11762145_a_at) / Fold change /veh MAPK11 (11762145_a_at) / RFU FIZ1 (11724087_x_at) / Fold change /veh FIZ1 (11724087_x_at) / RFU OASL (11726364_x_at) / Fold change /veh OASL (11726364_x_at) / RFU SOX15 (11748057_x_at) / Fold change /veh SOX15 (11748057_x_at) / RFU CD79A (11719716_a_at) / Fold change /veh CD79A (11719716_a_at) / RFU HIST1H1D (11736915_at) / Fold change /veh HIST1H1D (11736915_at) / RFU CASKIN2 (11723855_a_at) / Fold change /veh CASKIN2 (11723855_a_at) / RFU LOC730098 (11760151_x_at) / Fold change /veh LOC730098 (11760151_x_at) / RFU OR4N2 (11742367_at) / Fold change /veh OR4N2 (11742367_at) / RFU PRRT2 (11749266_a_at) / Fold change /veh PRRT2 (11749266_a_at) / RFU SNX32 (11753110_a_at) / Fold change /veh SNX32 (11753110_a_at) / RFU CDHR5 (11726645_a_at) / Fold change /veh CDHR5 (11726645_a_at) / RFU RCAN1 (11760418_a_at) / Fold change /veh RCAN1 (11760418_a_at) / RFU FAM167A (11723789_a_at) / Fold change /veh FAM167A (11723789_a_at) / RFU FAM26E (11764081_at) / Fold change /veh FAM26E (11764081_at) / RFU ISYNA1 (11749810_s_at) / Fold change /veh ISYNA1 (11749810_s_at) / RFU ACY1 (11761880_at) / Fold change /veh ACY1 (11761880_at) / RFU 11764098_at / Fold change /veh 11764098_at / RFU SAMD14 (11745864_x_at) / Fold change /veh SAMD14 (11745864_x_at) / RFU NPB (11741838_a_at) / Fold change /veh NPB (11741838_a_at) / RFU TMPRSS6 (11731388_a_at) / Fold change /veh TMPRSS6 (11731388_a_at) / RFU KRTAP10-2 (11738614_at) / Fold change /veh KRTAP10-2 (11738614_at) / RFU ARHGAP8 /// PRR5-ARHGAP8 (11727945_x_at) / Fold change /veh ARHGAP8 /// PRR5-ARHGAP8 (11727945_x_at) / RFU KRTAP5-7 /// NADSYN1 (11734609_at) / Fold change /veh KRTAP5-7 /// NADSYN1 (11734609_at) / RFU RASL12 (11751679_a_at) / Fold change /veh RASL12 (11751679_a_at) / RFU CDKN2B (11736163_a_at) / Fold change /veh CDKN2B (11736163_a_at) / RFU PRF1 (11729649_at) / Fold change /veh PRF1 (11729649_at) / RFU, ZNF638 /// ZNF638-IT1 / Fold change vs veh, ZNF638 /// ZNF638-IT1 / RFU, PANK3 / Fold change vs veh, PANK3 / RFU, SH3YL1 / Fold change vs veh, SH3YL1 / RFU, ZEB2 / Fold change vs veh, ZEB2 / RFU, NRIP1 / Fold change vs veh, NRIP1 / RFU, PTTG1IP / Fold change vs veh, PTTG1IP / RFU, CAPN2 / Fold change vs veh, CAPN2 / RFU, MED14 / Fold change vs veh, MED14 / RFU, SNORA58 / Fold change vs veh, SNORA58 / RFU, C1orf63 / Fold change vs veh, C1orf63 / RFU, LRRFIP1 / Fold change vs veh, LRRFIP1 / RFU, NDUFAF7 / Fold change vs veh, NDUFAF7 / RFU, SLC12A2 / Fold change vs veh, SLC12A2 / RFU, IBTK / Fold change vs veh, IBTK / RFU, ESF1 / Fold change vs veh, ESF1 / Fold change vs veh, TMEM50B / RFU, TAOK1 / Fold change vs veh, TAOK1 / RFU, ACBD3 / Fold change vs veh, ACBD3 / RFU, TMA16 / Fold change vs veh, TMA16 / RFU, RWDD3 / Fold change vs veh, RWDD3 / RFU, BCAT1 / Fold change vs veh, BCAT1 / RFU, EDEM3 / Fold change vs veh, EDEM3 / RFU, TMEM33 / Fold change vs veh, TMEM33 / RFU, WDR75 / Fold change vs veh, WDR75 / RFU, AHCTF1 / Fold change vs veh, AHCTF1 / RFU, TFRC / Fold change vs veh, TFRC / RFU, ZDHHC17 / Fold change vs veh, ZDHHC17 / RFU, NOM1 / Fold change vs veh, NOM1 / RFU, ARL8B / Fold change vs veh, ARL8B / RFU, ZBTB11 / Fold change vs veh, ZBTB11 / RFU, TAMM41 / Fold change vs veh, TAMM41 / RFU, KIAA1704 /// LOC100996395 / Fold change vs veh, KIAA1704 /// LOC100996395 / RFU, ING1 / Fold change vs veh, ING1 / RFU, TRMT61B / Fold change vs veh, TRMT61B / RFU, FUBP3 / Fold change vs veh, FUBP3 / RFU, TP53 / Fold change vs veh, TP53 / RFU, TNKS2 / Fold change vs veh, TNKS2 / RFU, ZFP14 / Fold change vs veh, ZFP14 / RFU, ACTR2 / Fold change vs veh, ACTR2 / RFU, PPP3R1 / Fold change vs veh, PPP3R1 / RFU, PIK3R1 / Fold change vs veh, PIK3R1 / RFU, HNRNPA1 / Fold change vs veh, HNRNPA1 / RFU, RNF170 / Fold change vs veh, RNF170 / RFU, ZNF28 / Fold change vs veh, ZNF28 / RFU, RNGTT / Fold change vs veh, RNGTT / RFU, OGT / Fold change vs veh, OGT / RFU, BRD1 / Fold change vs veh, BRD1 / RFU, MARS / Fold change vs veh, MARS / RFU, ZNF655 / Fold change vs veh, ZNF655 / RFU, FAHD1 / Fold change vs veh, FAHD1 / RFU, BDP1 / Fold change vs veh, BDP1 / RFU, LRRCC1 / Fold change vs veh, LRRCC1 / RFU, ARID1A / Fold change vs veh, ARID1A / RFU, ZNF146 / Fold change vs veh, ZNF146 / RFU, ZNF330 / Fold change vs veh, ZNF330 / RFU, GPN3 / Fold change vs veh, GPN3 / RFU, C9orf123 / Fold change vs veh, C9orf123 / RFU, N4BP2L2 / Fold change vs veh, N4BP2L2 / RFU, ARFIP1 / Fold change vs veh, ARFIP1 / RFU, FAM179B / Fold change vs veh, FAM179B / RFU, BCL10 / Fold change vs veh, BCL10 / RFU, UHRF1BP1L / Fold change vs veh, UHRF1BP1L / RFU, BET1 / Fold change vs veh, BET1 / RFU, CNOT2 / Fold change vs veh, CNOT2 / RFU, ZNF268 / Fold change vs veh, ZNF268 / Fold change vs veh, ZNF507 / RFU, DGCR2 / Fold change vs veh, DGCR2 / RFU, WDSUB1 / Fold change vs veh, WDSUB1 / Fold change vs veh, HSP90B1 /// MIR3652 / RFU, ADSS / Fold change vs veh, ADSS / RFU, GK / Fold change vs veh, GK / RFU, ZNF148 / Fold change vs veh, ZNF148 / RFU, TAF9 / Fold change vs veh, TAF9 / RFU, SLC1A5 / Fold change vs veh, SLC1A5 / RFU, SLMO2 / Fold change vs veh, SLMO2 / RFU, ABCC4 / Fold change vs veh, ABCC4 / RFU, LOC101060439 /// RAP1B / Fold change vs veh, LOC101060439 /// RAP1B / RFU, RFX7 / Fold change vs veh, RFX7 / RFU, GTPBP10 / Fold change vs veh, GTPBP10 / RFU, CNEP1R1 / Fold change vs veh, CNEP1R1 / RFU, BIVM-ERCC5 /// ERCC5 / Fold change vs veh, BIVM-ERCC5 /// ERCC5 / RFU, ILF3 / Fold change vs veh, ILF3 / RFU 11762660_at / Fold change /veh 11762660_at / RFU VCAN (11757783_s_at) / Fold change /veh VCAN (11757783_s_at) / RFU DDX43 (11728927_at) / Fold change /veh DDX43 (11728927_at) / RFU KRT8 (11758188_x_at) / Fold change /veh KRT8 (11758188_x_at) / RFU NKD1 (11759106_at) / Fold change /veh NKD1 (11759106_at) / RFU SRD5A1 (11742802_a_at) / Fold change /veh SRD5A1 (11742802_a_at) / RFU TPSAB1 /// TPSB2 (11721975_s_at) / Fold change /veh TPSAB1 /// TPSB2 (11721975_s_at) / RFU GSTM3 (11746129_a_at) / Fold change /veh GSTM3 (11746129_a_at) / RFU IL23R (11737362_x_at) / Fold change /veh IL23R (11737362_x_at) / RFU TMEM51 (11727254_a_at) / Fold change /veh TMEM51 (11727254_a_at) / RFU PIWIL2 (11732686_x_at) / Fold change /veh PIWIL2 (11732686_x_at) / RFU ORM1 (11744905_x_at) / Fold change /veh ORM1 (11744905_x_at) / RFU CCDC152 (11743942_at) / Fold change /veh CCDC152 (11743942_at) / RFU ECM1 (11717891_a_at) / Fold change /veh ECM1 (11717891_a_at) / RFU IL23R (11748794_a_at) / Fold change /veh IL23R (11748794_a_at) / RFU TNFAIP8L3 (11732012_x_at) / Fold change /veh TNFAIP8L3 (11732012_x_at) / RFU MBOAT4 (11741988_at) / Fold change /veh MBOAT4 (11741988_at) / RFU 11764193_at / Fold change /veh 11764193_at / RFU TMEM53 (11763286_at) / Fold change /veh TMEM53 (11763286_at) / RFU MAGEB2 (11727129_at) / Fold change /veh MAGEB2 (11727129_at) / RFU TMEM200A (11744735_a_at) / Fold change /veh TMEM200A (11744735_a_at) / RFU CCDC152 (11751479_a_at) / Fold change /veh CCDC152 (11751479_a_at) / RFU FAM211A (11726209_a_at) / Fold change /veh FAM211A (11726209_a_at) / RFU RGS16 (11746705_a_at) / Fold change /veh RGS16 (11746705_a_at) / RFU VCAN (11755009_s_at) / Fold change /veh VCAN (11755009_s_at) / RFU RHOB (11743442_s_at) / Fold change /veh RHOB (11743442_s_at) / RFU RGS16 (11720943_a_at) / Fold change /veh RGS16 (11720943_a_at) / RFU RGS16 (11720944_at) / Fold change /veh RGS16 (11720944_at) / RFU, VPS4B / Fold change vs veh, VPS4B / RFU, CREB1 / Fold change vs veh, CREB1 / RFU, DNAJC13 / Fold change vs veh, DNAJC13 / RFU, GNAQ / Fold change vs veh, GNAQ / RFU, CDK5R1 / Fold change vs veh, CDK5R1 / RFU, ZRANB3 / Fold change vs veh, ZRANB3 / RFU, CUL4A / Fold change vs veh, CUL4A / RFU, CCNY / Fold change vs veh, CCNY / RFU, UFL1 / Fold change vs veh, UFL1 / RFU, COG3 / Fold change vs veh, COG3 / RFU, DIAPH2 / Fold change vs veh, DIAPH2 / RFU, SKA2 / Fold change vs veh, SKA2 / RFU, AFF3 / Fold change vs veh, AFF3 / RFU, LMF1 / Fold change vs veh, LMF1 / RFU, IPO11 / Fold change vs veh, IPO11 / RFU, DFFB / Fold change vs veh, DFFB / RFU, FOXP1 / Fold change vs veh, FOXP1 / RFU, CARD8 / Fold change vs veh, CARD8 / RFU, STRN3 / Fold change vs veh, STRN3 / RFU, ADK / Fold change vs veh, ADK / RFU, RASSF2 / Fold change vs veh, RASSF2 / RFU, WIPF1 / Fold change vs veh, WIPF1 / RFU, LARP1B / Fold change vs veh, LARP1B / RFU, RASA1 / Fold change vs veh, RASA1 / RFU, RB1 / Fold change vs veh, RB1 / RFU, PPFIA1 / Fold change vs veh, PPFIA1 / RFU, MAT2A / Fold change vs veh, MAT2A / RFU, CCT5 / Fold change vs veh, CCT5 / RFU, WDR92 / Fold change vs veh, WDR92 / RFU, CUX1 / Fold change vs veh, CUX1 / RFU, TTC7A / Fold change vs veh, TTC7A / RFU, TMEM135 / Fold change vs veh, TMEM135 / RFU, DEPTOR / Fold change vs veh, DEPTOR / RFU, CPM / Fold change vs veh, CPM / RFU, DNAJB6 / Fold change vs veh, DNAJB6 / RFU, CACNA2D3 / Fold change vs veh, CACNA2D3 / RFU, DTX4 / Fold change vs veh, DTX4 / RFU, TFCP2 / Fold change vs veh, TFCP2 / RFU, GMCL1 /// GMCL1P1 / Fold change vs veh, GMCL1 /// GMCL1P1 / RFU, AEBP2 / Fold change vs veh, AEBP2 / RFU, SNHG1 /// SNORD22 /// SNORD25 /// SNORD26 /// SNORD27 /// SNORD28 /// SNORD29 /// SNORD31 / Fold change vs veh, SNHG1 /// SNORD22 /// SNORD25 /// SNORD26 /// SNORD27 /// SNORD28 /// SNORD29 /// SNORD31 / Fold change (Aza/veh), C12orf56 (ProbeSet 11735607_a_at) / Fold change (ACY-1035/veh), C12orf56 (ProbeSet 11735607_a_at) / Fold change (Aza/veh), FGFR1OP (ProbeSet 11751329_s_at) / Fold change (ACY-1035/veh), FGFR1OP (ProbeSet 11751329_s_at) / Fold change (Aza/veh), VPS36 (ProbeSet 11739960_a_at) / Fold change (ACY-1035/veh), VPS36 (ProbeSet 11739960_a_at) / RFU SYPL1 (11715823_x_at) / Fold change /veh SYPL1 (11715823_x_at) / RFU IGFBP7 (11715501_s_at) / Fold change /veh IGFBP7 (11715501_s_at) / RFU REEP3 (11722064_at) / Fold change /veh REEP3 (11722064_at) / RFU IGLL1 (11728026_x_at) / Fold change /veh IGLL1 (11728026_x_at): dose or concentration left out as unconfirmed
Conditions: MV-4-11 cells, 48 hours

## Nc1ccc(-c2cccs2)cc1NC(=O)c1ccc2c(c1)cc(C1CC1)n2CCN1CCOCC1 [ACY-1035]
  RFU WNT11 (11732464_a_at): 8.64 RFU
